Assay results from ChEMBL document CHEMBL1128162, “Synthesis and binding properties of myo-inositol 4,5,6-tris(phosphate) an analogue of myo-inositol 1,4,5-tris(phosphate). Correlation with the ionization state of the molecules” (Bioorg Med Chem Lett, 1995).

Experiments:
[1] = Binding affinity against Ins(4,5,6)P3 receptor prepared from purified rat brain cerebellum; type: tissue-based
[2] = target: Inositol 1,4,5-trisphosphate receptor (Homo sapiens, UniProt Q14571+Q14573+Q14643); assay: Binding affinity against Ins(4,5)P2 receptor prepared from purified guinea pig hepatocytes; set-up: species or system Cavia porcellus; conditions: hepatocyte
[3] = Binding affinity against Ins(1,4,5)P3 receptor prepared from purified rat brain cerebellum; type: tissue-based

**Q.** For `O=P(O)(O)O[C@H]1[C@H](OP(=O)(O)O)[C@@H](O)[C@@H](O)[C@@H](O)[C@@H]1OP(=O)(O)O`, which IC50 [1] is on record?
**A.** Its IC50 is 9.3 µM.

**Q.** With `O=P(O)(O)O[C@@H]1[C@@H](O)[C@H](O)[C@H](O)[C@H](O)[C@H]1OP(=O)(O)O` as the compound, how does the IC50 [2] read?
**A.** The IC50 was 50 µM.

**Q.** Which IC50 [3] does the source give for `O=P(O)(O)O[C@@H]1[C@H](O)[C@H](O)[C@@H](OP(=O)(O)O)[C@H](OP(=O)(O)O)[C@H]1O` [INS(1,4,5)P3] here?
**A.** Its IC50 is 0.01 µM.
